Results published in ChEMBL document CHEMBL3044624, “Cycloate, an inhibitor of fatty acid elongase, modulates the metabolism of very-long-side-chain alkylresorcinols in rye seedlings” (Pest Manag Sci, 2009).

Key:
Secale cereale [1] = assay: Toxicity against green Secale cereale (rye) seedlings assessed as dry biomass of seedling grown at 29 +/-2 degC at 46 uM measured at 5 days after compound-treated seed germination (reference value: 2.32 +/-0.05 g); assay type: organism-based; conditions: in vivo, 120 h
Secale cereale [2] = assay: Change in alkylresorcinol homologue composition in dry shoots of etiolated Secale cereale (rye) seedlings grown from compound-treated seeds at 22 +/-2 degC assessed as C25:0 content at 46 uM by GC/EI-MS analysis (reference value: 0.08 mg/kg dry weight); assay type: functional
Secale cereale [3] = assay: Change in alkylresorcinol homologue composition in dry shoots of green Secale cereale (rye) seedlings grown from compound-treated seeds at 22 +/-2 degC assessed as C17:0 content at 46 uM by GC/EI-MS analysis (reference value: 0.93 mg/kg dry weight); assay type: functional
Secale cereale [4] = assay: Change in alkylresorcinol homologue composition in dry shoots of etiolated Secale cereale (rye) seedlings grown from compound-treated seeds at 22 +/-2 degC assessed as C23:0 content at 46 uM by GC/EI-MS analysis (reference value: 0.37 mg/kg dry weight); assay type: functional
Secale cereale [5] = assay: Toxicity against etiolated Secale cereale (rye) seedlings assessed as dry biomass of seedling grown at 22 +/-2 degC at 46 uM measured at 5 days after compound-treated seed germination (reference value: 2.52 +/-0.05 g); assay type: organism-based; conditions: in vivo, 120 h
Secale cereale [6] = assay: Change in alkylresorcinol homologue composition in dry shoots of green Secale cereale (rye) seedlings grown from compound-treated seeds at 15 +/-2 degC assessed as C17:1 content at 46 uM by GC/EI-MS analysis (reference value: 0.17 mg/kg dry weight); assay type: functional
Secale cereale [7] = assay: Change in alkylresorcinol homologue composition in dry shoots of etiolated Secale cereale (rye) seedlings grown from compound-treated seeds at 29 +/-2 degC assessed as C23:1 content at 46 uM by GC/EI-MS analysis; assay type: functional
Secale cereale [8] = assay: Change in alkylresorcinol homologue composition in dry shoots of green Secale cereale (rye) seedlings grown from compound-treated seeds at 29 +/-2 degC assessed as C21:0 content at 46 uM by GC/EI-MS analysis (reference value: 0.20 mg/kg dry weight); assay type: functional
Secale cereale [9] = assay: Change in alkylresorcinol homologue composition in dry shoots of green Secale cereale (rye) seedlings grown from compound-treated seeds at 22 +/-2 degC assessed as C17:1 content at 46 uM by GC/EI-MS analysis (reference value: 0.21 mg/kg dry weight); assay type: functional
Secale cereale [10] = assay: Change in alkylresorcinol homologue composition in dry shoots of etiolated Secale cereale (rye) seedlings grown from compound-treated seeds at 22 +/-2 degC assessed as C15:0 content at 46 uM by GC/EI-MS analysis (reference value: 0.60 mg/kg dry weight); assay type: functional
Secale cereale [11] = assay: Change in alkylresorcinol homologue composition in dry shoots of etiolated Secale cereale (rye) seedlings grown from compound-treated seeds at 15 +/-2 degC assessed as C19:0 content at 46 uM by GC/EI-MS analysis (reference value: 1.77 mg/kg dry weight); assay type: functional
Secale cereale [12] = assay: Toxicity against green Secale cereale (rye) seedlings assessed as fresh biomass of seedling grown at 29 +/-2 degC at 46 uM measured at 5 days after compound-treated seed germination (reference value: 16.33 +/-0.24 g); assay type: organism-based; conditions: in vivo, 120 h
Secale cereale [13] = assay: Change in alkylresorcinol homologue composition in dry shoots of green Secale cereale (rye) seedlings grown from compound-treated seeds at 15 +/-2 degC assessed as C23:0 content at 46 uM by GC/EI-MS analysis (reference value: 0.59 mg/kg dry weight); assay type: functional
Secale cereale [14] = assay: Change in alkylresorcinol content in dry shoots of green Secale cereale (rye) seedlings grown from compound-treated seeds at 29 +/-2 degC at 46 uM by thin layer chromatography (reference value: 1.94 +/-0.02 mg/kg dry weight); assay type: functional
Secale cereale [15] = assay: Change in alkylresorcinol homologue composition in dry shoots of green Secale cereale (rye) seedlings grown from compound-treated seeds at 22 +/-2 degC assessed as C21:0 content at 46 uM by GC/EI-MS analysis (reference value: 0.23 mg/kg dry weight); assay type: functional
Secale cereale [16] = assay: Change in alkylresorcinol homologue composition in dry shoots of green Secale cereale (rye) seedlings grown from compound-treated seeds at 29 +/-2 degC assessed as C25:0 content at 46 uM by GC/EI-MS analysis (reference value: 0.03 mg/kg dry weight); assay type: functional
Secale cereale [17] = assay: Toxicity against etiolated Secale cereale (rye) seedlings assessed as dry biomass of seedling grown at 29 +/-2 degC at 46 uM measured at 5 days after compound-treated seed germination (reference value: 2.13 +/-0.03 g); assay type: organism-based; conditions: in vivo, 120 h
Secale cereale [18] = assay: Toxicity against etiolated Secale cereale (rye) seedlings assessed as fresh biomass of seedling grown at 29 +/-2 degC at 46 uM measured at 5 days after compound-treated seed germination (reference value: 16.03 +/-0.67 g); assay type: organism-based; conditions: in vivo, 120 h
Secale cereale [19] = assay: Change in alkylresorcinol homologue composition in dry shoots of etiolated Secale cereale (rye) seedlings grown from compound-treated seeds at 29 +/-2 degC assessed as C19:1 content at 46 uM by GC/EI-MS analysis (Rvb =0.09 mg/kg dry weight); assay type: functional
Secale cereale [20] = assay: Change in alkylresorcinol content in dry shoots of etiolated Secale cereale (rye) seedlings grown from compound-treated seeds at 15 +/-2 degC at 46 uM by thin layer chromatography (reference value: 8.13 +/-0.14 mg/kg dry weight); assay type: functional
Secale cereale [21] = assay: Toxicity against green Secale cereale (rye) seedlings assessed as dry biomass of seedling grown at 15 +/-2 degC at 46 uM measured at 5 days after compound-treated seed germination (reference value: 1.64 +/-0.03 g); assay type: organism-based; conditions: in vivo, 120 h
Secale cereale [22] = assay: Change in alkylresorcinol homologue composition in dry shoots of green Secale cereale (rye) seedlings grown from compound-treated seeds at 22 +/-2 degC assessed as C21:1 content at 46 uM by GC/EI-MS analysis (reference value: 0.09 mg/kg dry weight); assay type: functional
Secale cereale [23] = assay: Change in alkylresorcinol homologue composition in dry shoots of etiolated Secale cereale (rye) seedlings grown from compound-treated seeds at 29 +/-2 degC assessed as C19:0 content at 46 uM by GC/EI-MS analysis (reference value: 1.06 mg/kg dry weight); assay type: functional

## CCSC(=O)N(CC)C1CCCCC1 [CYCLOATE]
Secale cereale [1]
  Activity: 1.64 g
Secale cereale [2]
  Activity: 0.06 mg/kg
Secale cereale [3]
  Activity: 1.32 mg/kg
Secale cereale [4]
  Activity: 0.3 mg/kg
Secale cereale [5]
  Activity: 1.5 g
Secale cereale [6]
  Activity: 0.34 mg/kg
Secale cereale [7]
  Activity: 0.07 mg/kg
Secale cereale [8]
  Activity: 1.34 mg/kg
Secale cereale [9]
  Activity: 0.13 mg/kg
Secale cereale [10]
  Activity: 0.1 mg/kg
Secale cereale [11]
  Activity: 2.64 mg/kg
Secale cereale [12]
  Activity: 7.02 g
Secale cereale [13]
  Activity: 0.17 mg/kg
Secale cereale [14]
  Activity: 13.96 mg/kg
Secale cereale [15]
  Activity: 0.05 mg/kg
Secale cereale [16]
  Activity: 0.2 mg/kg
Secale cereale [17]
  Activity: 2.32 g
Secale cereale [18]
  Activity: 21 g
Secale cereale [19]
  Activity: 1.2 mg/kg
Secale cereale [20]
  Activity: 13.11 mg/kg
Secale cereale [21]
  Activity: 1.12 g
Secale cereale [22]
  Activity: 0.05 mg/kg
Secale cereale [23]
  Activity: 3.74 mg/kg
